Square brackets hold non-standard residues; d marks the D form. Peptide text beside a SMILES is read from it. * marks the point of attachment. Biotin = O=C1N[C@H]2[C@H](CS[C@H]2CCCCC(=O)*)N1
Molecular target: T1, HCV NS3 protease (Hepatitis C virus genotype 1a, UniProt P27958)
T1 construct: HT (hydrophilic solubilizing tail) (C); made in house; host or cells: E. coli M15 [pREP4]
Experiment: HPLC assay of inhibition of HCV NS3 protease cleavage of the 5A/5B substrate
Format: biochemical
Conditions: Example 2; separate method not given; read-out: IC50, monovalent inhibitors of the HCV NS3 protease
Procedure: Into an aqueous solution containing 25 mM TRIS, 50 mM NaCl, 0.5 mM EDTA, 10% glycerol and 0.1% NP40 was placed the potential inhibitor, the HCV NS3 protease at a concentration of 0.05 μM-[…], the HCV NS4A cofactor at a concentration of 0.05 μM-0.1 μM and the 5A/5B substrate at a concentration of 50 μM. This solution was then incubated for approximately 2 hours at 30° C. after which the solution was applied to an HPLC to determine if the 5A/5B remained intact and thus the compound was determined to be an inhibitor. […] The potential inhibitors were assayed at several different concentrations to determine the concentration which produced 50% inhibition of the HCV NS3 protease.

T1 sequence (P27958 1028-1209): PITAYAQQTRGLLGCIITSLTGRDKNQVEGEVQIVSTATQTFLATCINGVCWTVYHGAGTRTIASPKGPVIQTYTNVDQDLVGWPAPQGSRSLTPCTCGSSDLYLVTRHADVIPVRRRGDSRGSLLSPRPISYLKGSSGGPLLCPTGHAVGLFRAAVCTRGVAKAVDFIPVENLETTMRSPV

CC[C@@H](C)[C@@H](NC(=O)[C@H](NC(=O)[C@@H](CC(C)C)NC(=O)[C@@H](CO)NC(=O)CNC(=O)[C@@H](CCCCN)NC(=O)CCCC[C@@H]1SC[C@@H]2NC(=O)N[C@@H]21)C(C)C)C(=O)N[C@H](CCCNC(=N)N)C(=O)NCC(=O)N[C@@H](C(=O)N[C@@H](C(=O)N[C@@H](C(=O)N[C@@H](C(=O)N[C@H](CS)C(=O)N[C@@H](CCCCN)C(=O)N[C@@H](CCCCN)C(=O)O)C(C)C)C(C)C)[C@H](C)CC)C(C)C [SEQ ID NO.: 14, Xaa-Lys-Gly-Ser-Leu-Val-Ile-Arg-Gly-Val-Ile Val-Val-Cys-Lys-Lys] (Biotin-[dK]G[dS][dL][dV][dI][dR]G[dV][dI][dV][dV][dC]KK-OH)
IC50: 400 nM

CC[C@@H](C)[C@@H](NC(=O)[C@H](NC(=O)[C@@H](CC(C)C)NC(=O)[C@@H](CO)NC(C)=O)C(C)C)C(=O)N[C@H](CCCNC(=N)N)C(=O)NCC(=O)N[C@@H](C(=O)N[C@@H](C(=O)N[C@@H](C(N)=O)C(C)C)[C@H](C)CC)C(C)C [SEQ ID NO.: 12, Ser-Leu-Val-Ile-Arg-Gly-Val-Ile-Val]
IC50: 600 nM

CC[C@@H](C)[C@@H](NC(=O)[C@H](NC(=O)[C@@H](CC(C)C)NC(=O)[C@@H](CO)NC(=O)CNC(=O)[C@@H](CCCCN)NC(C)=O)C(C)C)C(=O)N[C@H](CCCNC(=N)N)C(=O)NCC(=O)N[C@@H](C(=O)N[C@@H](C(=O)N[C@@H](C(=O)N[C@@H](C(=O)N[C@H](CS)C(N)=O)C(C)C)C(C)C)[C@H](C)CC)C(C)C [SEQ ID NO.: 13, Lys-Gly-Ser-Leu-Val-Ile-Arg-Gly-Val-Ile-Val-Val-Cys]
IC50: 2000 nM

— patent US5990276A, “Synthetic inhibitors of hepatitis C virus NS3 protease” (Schering Corporation, priority 1997, dated 1999)
